Conditions: Liquid, Vibrating tube method

FC(C(F)(F)F)C(F)(F)F [1,1,1,2,3,3,3-heptafluoropropane]
Conditions	mass density [kg/m3]
333.15 K, 33156 kPa	1451.3
333.15 K, 33196 kPa	1451.6
333.15 K, 33224 kPa	1451.7
333.15 K, 33268 kPa	1451.7
333.15 K, 33317 kPa	1451.9
333.15 K, 33346 kPa	1452
333.15 K, 33391 kPa	1452.2
333.15 K, 33421 kPa	1452.4
333.15 K, 33465 kPa	1452.5
333.15 K, 33498 kPa	1452.4
333.15 K, 33532 kPa	1452.7
333.15 K, 33566 kPa	1452.8
333.15 K, 33615 kPa	1453
333.15 K, 33639 kPa	1453.3
333.15 K, 33683 kPa	1453.3
333.15 K, 33713 kPa	1453.3
333.15 K, 33753 kPa	1453.7
333.15 K, 34447 kPa	1456.1
333.15 K, 34493 kPa	1456.2
333.15 K, 34519 kPa	1456.4
333.15 K, 34541 kPa	1456.4
333.15 K, 34553 kPa	1456.4
333.15 K, 34564 kPa	1456.6
333.15 K, 34570 kPa	1456.7
333.16 K, 8979 kPa	1316.3
333.16 K, 9012 kPa	1316.5
333.16 K, 9767 kPa	1323.1
333.16 K, 9793 kPa	1323.2
333.16 K, 9821 kPa	1323.4
333.16 K, 9857 kPa	1323.7
333.16 K, 9885 kPa	1324
333.16 K, 9911 kPa	1324.3
333.16 K, 9936 kPa	1324.5
333.16 K, 9961 kPa	1324.7
333.16 K, 9986 kPa	1324.9
333.16 K, 10016 kPa	1325.2
333.16 K, 10042 kPa	1325.3
333.16 K, 10070 kPa	1325.4
333.16 K, 10094 kPa	1325.8
333.16 K, 10119 kPa	1326.1
333.16 K, 10148 kPa	1326.3
333.16 K, 10178 kPa	1326.6
333.16 K, 10203 kPa	1326.6
333.16 K, 10236 kPa	1326.9
333.16 K, 10265 kPa	1327.2
333.16 K, 10287 kPa	1327.4
333.16 K, 10312 kPa	1327.6
333.16 K, 10338 kPa	1327.9
333.16 K, 10367 kPa	1328.1
333.16 K, 10397 kPa	1328.3
333.16 K, 10430 kPa	1328.5
333.16 K, 10457 kPa	1328.7
333.16 K, 10483 kPa	1329
333.16 K, 10515 kPa	1329.4
333.16 K, 10537 kPa	1329.3
333.16 K, 10570 kPa	1329.8
333.16 K, 10596 kPa	1329.9
333.16 K, 10624 kPa	1330.1
333.16 K, 10654 kPa	1330.5
333.16 K, 10839 kPa	1331.8
333.16 K, 10866 kPa	1332.1
333.16 K, 10896 kPa	1332.3
333.16 K, 10918 kPa	1332.5
333.16 K, 10947 kPa	1332.7
333.16 K, 10979 kPa	1332.9
333.16 K, 11112 kPa	1334
333.16 K, 11141 kPa	1334.3
333.16 K, 11160 kPa	1334.5
333.16 K, 11186 kPa	1334.6
333.16 K, 11212 kPa	1334.9
333.16 K, 11245 kPa	1335.1
333.16 K, 11275 kPa	1335.4
333.16 K, 11298 kPa	1335.5
333.16 K, 11320 kPa	1335.7
333.16 K, 11353 kPa	1336
333.16 K, 11388 kPa	1336.3
333.16 K, 11415 kPa	1336.6
333.16 K, 11450 kPa	1336.7
333.16 K, 11481 kPa	1337
333.16 K, 11534 kPa	1337.4
333.16 K, 11792 kPa	1339.3
333.16 K, 11824 kPa	1339.6
333.16 K, 11847 kPa	1339.8
333.16 K, 11870 kPa	1339.9
333.16 K, 11897 kPa	1340.1
333.16 K, 11937 kPa	1340.4
333.16 K, 11965 kPa	1340.6
333.16 K, 11989 kPa	1340.8
333.16 K, 12024 kPa	1341.1
333.16 K, 12062 kPa	1341.3
333.16 K, 12090 kPa	1341.4
333.16 K, 12120 kPa	1341.8
333.16 K, 12147 kPa	1342
333.16 K, 12167 kPa	1342.2
333.16 K, 12202 kPa	1342.3
333.16 K, 12226 kPa	1342.6
333.16 K, 12261 kPa	1342.8
333.16 K, 12289 kPa	1343
333.16 K, 12321 kPa	1343.4
333.16 K, 12345 kPa	1343.5
333.16 K, 12385 kPa	1343.8
333.16 K, 12416 kPa	1344
333.16 K, 12443 kPa	1344.2
333.16 K, 12466 kPa	1344.3
333.16 K, 12886 kPa	1347.5
333.16 K, 12914 kPa	1347.5
333.16 K, 12942 kPa	1347.8
333.16 K, 12966 kPa	1347.9
333.16 K, 12994 kPa	1348.2
333.16 K, 13023 kPa	1348.2
333.16 K, 13053 kPa	1348.6
333.16 K, 13082 kPa	1348.9
333.16 K, 13115 kPa	1349.1
333.16 K, 13140 kPa	1349.1
333.16 K, 13164 kPa	1349.4
333.16 K, 13196 kPa	1349.7
333.16 K, 13220 kPa	1349.7
333.16 K, 13244 kPa	1349.9
333.16 K, 13272 kPa	1350.2
333.16 K, 13304 kPa	1350.5
333.16 K, 13324 kPa	1350.5
333.16 K, 13344 kPa	1350.6
333.16 K, 13368 kPa	1350.9
333.16 K, 13394 kPa	1351.1
333.16 K, 13432 kPa	1351.2
333.16 K, 13461 kPa	1351.4
333.16 K, 13494 kPa	1351.7
333.16 K, 13518 kPa	1351.9
333.16 K, 13633 kPa	1352.7
333.16 K, 13666 kPa	1352.9
333.16 K, 13690 kPa	1353
333.16 K, 13724 kPa	1353.1
333.16 K, 13921 kPa	1354.7
333.16 K, 13954 kPa	1354.9
333.16 K, 13991 kPa	1355.1
333.16 K, 14017 kPa	1355.3
333.16 K, 14050 kPa	1355.5
333.16 K, 14075 kPa	1355.8
333.16 K, 14106 kPa	1355.9
333.16 K, 14140 kPa	1356.2
333.16 K, 14828 kPa	1360.7
333.16 K, 14853 kPa	1360.9
333.16 K, 14892 kPa	1361.2
333.16 K, 14922 kPa	1361.4
333.16 K, 14953 kPa	1361.5
333.16 K, 14979 kPa	1361.7
333.16 K, 15001 kPa	1361.9
333.16 K, 15034 kPa	1362.1
333.16 K, 15054 kPa	1362.3
333.16 K, 15081 kPa	1362.5
333.16 K, 15117 kPa	1362.6
333.16 K, 15153 kPa	1362.8
333.16 K, 15179 kPa	1363
333.16 K, 15260 kPa	1363.6
333.16 K, 15320 kPa	1364
333.16 K, 15346 kPa	1364.2
333.16 K, 15370 kPa	1364.4
333.16 K, 15404 kPa	1364.4
333.16 K, 15436 kPa	1364.7
333.16 K, 15464 kPa	1364.9
333.16 K, 15500 kPa	1365.2
333.16 K, 15533 kPa	1365.2
333.16 K, 15561 kPa	1365.5
333.16 K, 15593 kPa	1365.8
333.16 K, 15630 kPa	1366
333.16 K, 15658 kPa	1366.2
333.16 K, 15689 kPa	1366.4
333.16 K, 15953 kPa	1368
333.16 K, 15985 kPa	1368.1
333.16 K, 16013 kPa	1368.3
333.16 K, 16049 kPa	1368.5
333.16 K, 16085 kPa	1368.9
333.16 K, 16105 kPa	1369.1
333.16 K, 16141 kPa	1369.2
333.16 K, 16169 kPa	1369.4
333.16 K, 16193 kPa	1369.6
333.16 K, 16223 kPa	1369.6
333.16 K, 16248 kPa	1370
333.16 K, 16281 kPa	1370.1
333.16 K, 16314 kPa	1370.3
333.16 K, 16339 kPa	1370.4
333.16 K, 16363 kPa	1370.5
333.16 K, 16388 kPa	1370.7
333.16 K, 16416 kPa	1370.9
333.16 K, 16540 kPa	1371.7
333.16 K, 16572 kPa	1371.9
333.16 K, 16600 kPa	1372
333.16 K, 16655 kPa	1372.4
333.16 K, 16788 kPa	1373.2
333.16 K, 16821 kPa	1373.3
333.16 K, 16850 kPa	1373.5
333.16 K, 16876 kPa	1373.7
333.16 K, 16909 kPa	1373.8
333.16 K, 16937 kPa	1374.2
333.16 K, 16964 kPa	1374.2
333.16 K, 16992 kPa	1374.4
333.16 K, 17013 kPa	1374.5
333.16 K, 17038 kPa	1374.7
333.16 K, 17063 kPa	1374.9
333.16 K, 17088 kPa	1374.9
333.16 K, 17109 kPa	1375.2
333.16 K, 17137 kPa	1375.3
333.16 K, 17162 kPa	1375.4
333.16 K, 17189 kPa	1375.7
333.16 K, 17215 kPa	1375.7
